Measurements taken from the CheMixHub viscosity set.
Several values for one entry are separate records, joined by “and”; a condition that tells them apart may be missing. Identical values can stand only once. ± gives the uncertainty stated by the source.

Test: xn = mol fraction of the nth substance listed

CC(O)CC(C)(C)O (stereo not drawn) + Nc1ccccc1
viscosity [mPa·s], 101 kPa
Conditions	x1 = 0.0963	x1 = 0.1952	x1 = 0.2931	x1 = 0.3958	x1 = 0.4941	x1 = 0.5915	x1 = 0.6855	x1 = 0.8047	x1 = 0.8966
308.15 K	3.187 ± 0.32	3.549 ± 0.36	4.028 ± 0.4	4.615 ± 0.46	5.519 ± 0.55	6.694 ± 0.67	8.195 ± 0.82	10.82 ± 1.1	14.34 ± 1.4
318.15 K	2.348 ± 0.24	2.62 ± 0.26	3.031 ± 0.3	3.543 ± 0.35	4.32 ± 0.43	5.405 ± 0.54	6.826 ± 0.68	9.45 ± 0.95	12.55 ± 1.3

C1CC[NH2+]C1.CCCCCCCC(=O)[O-] + O
viscosity [mPa·s], 101 kPa
Conditions	x1 = 0.1001	x1 = 0.1939	x1 = 0.3059	x1 = 0.3999	x1 = 0.5006	x1 = 0.56	x1 = 0.7293	x1 = 0.8443
293.15 K	19.1 ± 3.8	30.6 ± 6.1	44.2 ± 8.8	53 ± 11	58.7 ± 12	61.3 ± 12	67.6 ± 14	70.6 ± 14
298.15 K	17 ± 3.4	28.7 ± 5.8	38.7 ± 7.8	45.6 ± 9.1	50.2 ± 10	51.77 ± 10	57.23 ± 12	60.69 ± 12
303.15 K	15.36 ± 3.1	22.52 ± 4.5	32.46 ± 6.5	37.47 ± 7.5	40.91 ± 8.2	42.49 ± 8.5	46.05 ± 9.3	48.99 ± 9.9
308.15 K	13.5 ± 2.7	19.87 ± 4	28.64 ± 5.7	32.64 ± 6.5	35.5 ± 7.1	36.88 ± 7.4	39.52 ± 8	42.04 ± 8.5
313.15 K	11.56 ± 2.3	17.09 ± 3.4	24.55 ± 4.9	27.65 ± 5.5	29.82 ± 6	30.62 ± 6.2	32.72 ± 6.6	34.71 ± 7

C=CCC[n+]1ccn(CCCC)c1.[Br-] + O
viscosity [mPa·s], 101.33 kPa
Conditions	x1 = 0.0008989	x1 = 0.00189	x1 = 0.003585	x1 = 0.005487	x1 = 0.007167	x1 = 0.008848
293.15 K	1.032 ± 0.032	1.064 ± 0.033	1.12 ± 0.034	1.182 ± 0.036	1.24 ± 0.038	1.289 ± 0.039
298.15 K	0.915 ± 0.028	0.943 ± 0.029	0.988 ± 0.03	1.046 ± 0.032	1.094 ± 0.033	1.137 ± 0.035
303.15 K	0.818 ± 0.025	0.844 ± 0.026	0.883 ± 0.027	0.931 ± 0.028	0.975 ± 0.03	1.011 ± 0.031
308.15 K	0.736 ± 0.023	0.758 ± 0.023	0.795 ± 0.024	0.837 ± 0.026	0.874 ± 0.027	0.902 ± 0.028
313.15 K	0.667 ± 0.02	0.687 ± 0.021	0.719 ± 0.022	0.757 ± 0.023	0.789 ± 0.024	0.815 ± 0.025

C=O + O
viscosity [mPa·s], 101 kPa
Conditions	x1 = 0.03	x1 = 0.062	x1 = 0.13	x1 = 0.2	x1 = 0.29	x1 = 0.37
293.15 K	1.13 ± 0.03	1.26 ± 0.03	1.54 ± 0.04	1.95 ± 0.05	–	–
303.15 K	0.91 ± 0.02	1.01 ± 0.03	1.25 ± 0.03	1.54 ± 0.04	–	–
313.15 K	0.74 ± 0.02	0.82 ± 0.02	1.01 ± 0.03	1.24 ± 0.03	–	–
323.15 K	0.61 ± 0.02	0.68 ± 0.02	0.83 ± 0.02	1.01 ± 0.03	1.61 ± 0.04	2.11 ± 0.06

CC1(C)SC2C(NC(=O)C(N)c3ccccc3)C(=O)N2C1C(=O)O (stereo not drawn) + O
viscosity, 101 kPa
Conditions	x1 = 9e-06	x1 = 1e-05	x1 = 2e-05	x1 = 3.2e-05	x1 = 3.6e-05	x1 = 4e-05	x1 = 5e-05	x1 = 6.8e-05	x1 = 7e-05	x1 = 7.2e-05
305.15 K	0.7656 ± 0.0095 mPa·s	0.7569 ± 0.016 mPa·s	0.7618 ± 0.02 mPa·s and 0.763 ± 0.016 mPa·s	0.7637 ± 0.02 mPa·s	0.7729 ± 0.0095 mPa·s	0.7702 ± 0.016 mPa·s	0.7649 ± 0.02 mPa·s	0.7656 ± 0.02 mPa·s	0.773 ± 0.017 mPa·s	0.7701 ± 0.0095 mPa·s
310.15 K	0.7019 ± 0.0087 mPa·s	0.6941 ± 0.015 mPa·s	0.6924 ± 0.018 mPa·s and 0.6965 ± 0.015 mPa·s	0.6948 ± 0.018 mPa·s	0.6993 ± 0.0086 mPa·s	0.6989 ± 0.015 mPa·s	0.6964 ± 0.018 mPa·s	0.6976 ± 0.018 mPa·s	0.7041 ± 0.015 mPa·s	0.7032 ± 0.0087 mPa·s
315.15 K	0.6419 ± 0.0079 mPa·s	0.6361 ± 0.014 mPa·s	0.6342 ± 0.017 mPa·s and 0.6376 ± 0.014 mPa·s	0.6356 ± 0.017 mPa·s	0.6442 ± 0.008 mPa·s	0.6407 ± 0.014 mPa·s	0.6381 ± 0.017 mPa·s	0.6398 ± 0.017 mPa·s	0.6421 ± 0.014 mPa·s	0.6399 ± 0.0079 mPa·s

CCC(C)O (stereo not drawn) + O
Conditions	viscosity [mPa·s]
293.15 K, 100 kPa, x1 = 0.58	3.807 ± 0.011
296 K, 101 kPa, x2 = 0.1	3.008 ± 0.019
296 K, 101 kPa, x2 = 0.68	3.67 ± 0.022
297 K, 101 kPa, x2 = 0.3	2.923 ± 0.018
297 K, 101 kPa, x2 = 0.4	3.074 ± 0.018
297 K, 101 kPa, x2 = 0.5	3.242 ± 0.019
297 K, 101 kPa, x2 = 0.6	3.416 ± 0.02
303 K, 101 kPa, x1 = 0.01	0.9465 ± 0.0062
303 K, 101 kPa, x2 = 0.1	2.363 ± 0.015
303 K, 101 kPa, x2 = 0.3	2.38 ± 0.015
303 K, 101 kPa, x2 = 0.4	2.495 ± 0.015
303 K, 101 kPa, x2 = 0.5	2.625 ± 0.016
303 K, 101 kPa, x2 = 0.6	2.759 ± 0.017
303 K, 101 kPa, x2 = 0.68	2.853 ± 0.017
303 K, 101 kPa, x2 = 0.98	1.103 ± 0.0071
304 K, 101 kPa, x2 = 0.97	1.229 ± 0.0076
305 K, 101 kPa, x2 = 0.2	2.185 ± 0.014
313 K, 101 kPa, x1 = 0.01	0.7564 ± 0.005
313 K, 101 kPa, x2 = 0.1	1.715 ± 0.011
313 K, 101 kPa, x2 = 0.2	1.702 ± 0.011
313 K, 101 kPa, x2 = 0.3	1.739 ± 0.011
313 K, 101 kPa, x2 = 0.4	1.815 ± 0.011
313 K, 101 kPa, x2 = 0.5	1.903 ± 0.012
313 K, 101 kPa, x2 = 0.6	1.993 ± 0.012
313 K, 101 kPa, x2 = 0.68	2.06 ± 0.013
313 K, 101 kPa, x2 = 0.97	0.97 ± 0.0063
313 K, 101 kPa, x2 = 0.98	0.8638 ± 0.0057
323 K, 101 kPa, x1 = 0.01	0.622 ± 0.0043
323 K, 101 kPa, x2 = 0.1	1.28 ± 0.0084
323 K, 101 kPa, x2 = 0.2	1.28 ± 0.0083
323 K, 101 kPa, x2 = 0.3	1.312 ± 0.0084
323 K, 101 kPa, x2 = 0.4	1.364 ± 0.0087
323 K, 101 kPa, x2 = 0.5	1.427 ± 0.009
323 K, 101 kPa, x2 = 0.6	1.492 ± 0.0093
323 K, 101 kPa, x2 = 0.68	1.541 ± 0.0095
323 K, 101 kPa, x2 = 0.97	0.773 ± 0.0051
323 K, 101 kPa, x2 = 0.98	0.6986 ± 0.0047
323.15 K, 100 kPa, x1 = 0.02	1.324 ± 0.004
323.15 K, 100 kPa, x1 = 0.58	1.517 ± 0.0046

CCCCOCCOCCO + O
viscosity [mPa·s], 101 kPa
Conditions	293.15 K	303.15 K	313.15 K	323.15 K
x1 = 0.01221	1.52 ± 0.01	1.15 ± 0.01	0.908 ± 0.007	0.738 ± 0.006
x1 = 0.02709	2.26 ± 0.02	1.64 ± 0.01	1.27 ± 0.01	1.02 ± 0.01
x1 = 0.04539	3.18 ± 0.02	2.31 ± 0.02	1.76 ± 0.01	1.38 ± 0.01
x1 = 0.0689	4.35 ± 0.03	3.1 ± 0.02	2.32 ± 0.02	1.79 ± 0.01
x1 = 0.09981	5.57 ± 0.03	3.93 ± 0.02	2.88 ± 0.02	2.19 ± 0.01
x1 = 0.1428	6.78 ± 0.04	4.74 ± 0.03	3.44 ± 0.02	–
x1 = 0.2062	7.94 ± 0.04	–	3.88 ± 0.02	2.87 ± 0.02
x1 = 0.3078	8.42 ± 0.05	5.78 ± 0.03	–	3.07 ± 0.02
x1 = 0.4	–	–	–	3.195 ± 0.035
x1 = 0.4037	8.24 ± 0.05	5.75 ± 0.04	–	3.08 ± 0.02
x1 = 0.5015	7.84 ± 0.05	5.55 ± 0.04	4.04 ± 0.03	3.02 ± 0.02
x1 = 0.6107	7.35 ± 0.05	5.27 ± 0.04	3.86 ± 0.03	2.91 ± 0.02
x1 = 0.705	6.94 ± 0.05	5 ± 0.03	3.7 ± 0.03	2.81 ± 0.02
x1 = 0.7958	6.56 ± 0.05	4.76 ± 0.03	3.54 ± 0.03	2.71 ± 0.02
x1 = 0.8932	6.2 ± 0.04	4.49 ± 0.03	3.38 ± 0.03	2.61 ± 0.02
